According to US20090075935A1, “COMPOSITION COMPRISING AT LEAST ONE C-GLYCOSIDE DERIVATIVE AND AT LEAST ONE HYALURONIC ACID AND ITS COSMETIC USE” (L'OREAL, priority 2006, published 2009):

Test system: keratinocyte transglutaminase (TGk)
Assay: Assaying of keratinocyte transglutaminase (TGk) activity in mitomycin-pretreated NHEKs in deficient medium (radiochemical assay)
Format: cell-based, human
Design: key to Significant variation relative to the control: NS = not significant
Conditions: for % Activity relative to the control / Significant variation relative to the control: TGk activity, medium with mitomycin, depleted medium, 96 hours
From the text: For this, normal human epidermal keratinocytes (NHEKs), pretreated with mitomycin so as to prevent proliferation thereof, in a deficient medium made up of 40% of depleted SFM medium and 60% of Earle's balanced salt solution (EBSS) buffer were placed in culture. The metabolism of these cells having been thus slowed down, their ability to differentiate is then quantified by assaying, using a standard radiochemical assay, the keratinocyte transglutaminase activity (TGk) of the NHEKs pretreated with the active agents. […] Normal human keratinocytes were cultured at 37° C. and 5% CO2 for 24 h in complete SFM medium. The cell divisions were then blocked by treatment with mitomycin C (10 μg/ml) for 2 hours at 37° C. and 5% CO2. The cells were then incubated for 96 hours in deficient or nondeficient (control) medium containing or not containing various concentrations of the test or reference products. […] The treatments were carried out in triplicate (n=3). At the end of the incubation, the TGk membrane enzyme was extracted in the presence of Triton X-100 and the TGk activity was determined by measuring the covalent addition of tritiated putrescine, at a final concentration of 2 μCi/ml, to caseine (acceptor protein, 2 mg/ml final concentration). The caseine was precipitated by addition of trichloroacetic acid (TCA) and the precipitates were recovered on filters and a collector and then the dry filters were counted by liquid scintillation.

In the case of `CC(O)CO` (stereo not drawn) [1,2-propanediol], the “% Activity relative to the control” value (0.16%) is reported as 87%, the “Significant variation relative to the control” value (0.16%) is reported as “NS” and the “effect on the TGk activity” value (tested at 0.8%) is reported as “did not modify the activity”.
In the case of `CC(O)C[C@@H]1OC[C@@H](O)[C@H](O)[C@H]1O` (stereo partly drawn) [C-β-D-xylopyranoside-2-hydroxypropane], the “% Activity relative to the control” value (0.06%) is reported as 128%, the “Significant variation relative to the control” value (0.06%) is reported as “NS” and the “effect on the TGk activity” value (tested at 0.06%) is reported as “no significant effect”.
`[Ca+2].[Cl-].[Cl-]` [CaCl2, Calcium chloride, reference compound] was tested, and the “effect on the TGk activity of the keratinocytes” value (1.5 mM) was “clearly increased the TGk activity”, the “% Activity relative to the control” value (1.5 mM) was 557% and the “Significant variation relative to the control” value (1.5 mM) was “+457%”.
In the case of Hyaluronic acid, the “% Activity relative to the control” value (0.02%) is reported as 88%, the “Significant variation relative to the control” value (0.02%) is reported as “NS” and the “effect on the keratinocyte transglutaminase activity” value (tested alone at 0.02%) is reported as “no effect”.
